{"source": "patent US20060122234A1", "about": "“Substituted thienyl-hydroxamic acids as histone deacetylase inhibitors” (Argenta Discovery Limited, priority 2002, published 2006)", "key": {"[1]": {"test_system": "MDA-MB-231 human mammary gland adenocarcinoma cells", "assay": "Cell proliferation assay (secondary assay), CyQUANT, MDA-MB-231", "type": "cell-based", "details": "MDA-MB-231, 72h exposure, 0.1% DMSO", "protocol": "(§1) Compounds are tested in a cell proliferation assay using the following cell lines:\nMDA-MB-231 are kept in L-15 (Leibovitz) medium (Gibco) supplemented with 15% FCS at 37° C. in a non-modified atmosphere, humidified incubator.\n(§2) Cells are seeded in 96-well plates at a density of 20,000 cells/ml (3,000 cells/well) and after 24 h they are exposed to different concentrations of compounds in 0.1% DMSO. Cells are grown for a further 72h, the media is removed and the cells are frozen at −80° C. for at least 30 minutes and lysed in a solution containing the CyQUANT dye. […] Therefore the fluorescence intensity is proportional to the number of cells present in each well and can be quantified using a multiwell fluorimeter by measuring the fluorescence of the solution at 520 nm.\n(§3) The percent activity of the compounds in reducing cell number is calculated as follow: % activity={(A^S−B)/(A^C−B)}×100 where: […]\n(§4) A^S is the fluorescence at 520 nm in the presence of the tested compound (Sample).\n(§5) A^C is the fluorescence at 520 nm in the presence of vehicle 0.1% DMSO (Control).\n(§6) B is the fluorescence at 520 nm in the absence of cells (Background fluorescence).\n(§7) The IC50 is defined as the concentration at which a given compound achieves 50% activity. IC50 values are calculated using the XLfit software package (version 2.0.5)."}, "[2]": {"test_system": "MCF-7 human mammary gland adenocarcinoma cells", "assay": "Cell proliferation assay (secondary assay), CyQUANT, MCF-7", "type": "cell-based", "details": "MCF7, MCF-7, 72h exposure, 0.1% DMSO", "protocol": "as §1\nBoth cell lines are free of Mycoplasma contamination (PCR Mycoplasma Detection Set, Takara). MCF-7 are kept in MEM medium (Gibco) supplemented with 10% FCS and 1% Non Essential Amino Acids at 37° C. in a 5% CO2 humidified incubator.\nas §2, §3, §4, §5, §6, §7"}, "[3]": {"test_system": "histone deacetylase activity (total lysates from K562 cells or HeLa nuclear extracts)", "assay": "Deacetylase assay (primary assay), fluorescent acetylated-lysine substrate", "type": "biochemical, human", "details": "30 minutes, 116 μM fluorescent substrate, 1% DMSO; read-out: IC50 (histone deacetylase enzymatic activity)", "protocol": "Compounds are tested for their capacity to inhibit histone deacetylase activity (primary assay) and for their biological effects on growing cells (secondary assay).\nTotal lysates from K562 chronic human myelogenous leukemia cells (obtained from American Type Culture Collection, Rockville, Md.) are used as source of HDAC activity. Cells are grown in RPMI media supplied with 10% FCS, harvested by centrifugation, washed once in PBS and resuspended at a density of 24×10^6/ml in HDA buffer (15 mM Potassium phosphate pH 7.5, 5% glycerol, 0.2 mM EDTA). After sonication, lysates are centrifuged at 1000 g for 20 minutes and the resulting supernatant is aliquoted and stored at −80° C. Alternatively, commercially available HeLa nuclear extracts (BIOMOL) are used as source of histone deacetylase activity.\nThe assay was carried out for 30 minutes using 116 μM of a fluorescent substrate containing an acetylated lysine (BIOMOL). When deacetylation of the lysine occurs, the substrate can react with the added developer producing a fluorophore. The amount of fluorophore produced is proportional to the HDAC activity in the sample and is quantified using a multiwell fluorimeter capable of excitation at 360 nm and detection at 450 nm.\nCompounds are diluted in DMSO prior to addition to assay buffer, the final DMSO concentration in the assay being 1%.\nThe percent activity of the compounds in reducing histone deacetylase enzymatic activity is calculated as follow: % activity={(F^S−B)/(F^C−B)}×100 where: […]\nF^S is the fluorescence at 450 nm in the presence of the tested compound (Sample).\nF^C is the fluorescence at 450 nm in the presence of vehicle 1% DMSO (Control). B is the fluorescence at 450 nm in the absence of enzyme (Background fluorescence)\nas §7"}}, "data": [{"smiles": "Cn1nc(C(F)(F)F)cc1-c1ccc(C(=O)NO)s1", "note": "[Example 1 (a), 5-(2-Methyl-5-trifluoromethyl-2H-pyrazol-3-yl)-thiophene-2-carboxylic acid hydroxyamide]", "values": [{"measurement": "IC50", "setting": "[1]", "value": 32, "unit": "µM"}, {"measurement": "IC50", "setting": "[2]", "value": 11, "unit": "µM"}]}, {"smiles": "O=C(NO)c1ccc(-c2ccc(NCc3cc4ccccc4o3)cn2)s1", "note": "[Example 1 (ba), 5-{5-[(Benzofuran-2-ylmethyl)-amino]-pyridin-2-yl}-thiophene-2-carboxylic acid hydroxyamide]", "values": [{"measurement": "IC50", "setting": "[1]", "value": 2, "unit": "µM"}, {"measurement": "IC50", "setting": "[2]", "value": 0.6, "unit": "µM"}, {"measurement": "IC50", "setting": "[3]", "value": 0.062, "unit": "µM"}]}, {"smiles": "NS(=O)(=O)c1cccc(NC(=O)Cn2ccc(-c3ccc(C(=O)NO)s3)n2)c1", "note": "[Example 1 (dc), 5-{1-[(3-Sulfamoyl-phenylcarbamoyl)-methyl]-1H-pyrazol-3-yl}-thiophene-2-carboxylic acid hydroxyamide]", "values": [{"measurement": "IC50", "setting": "[3]", "value": 0.242, "unit": "µM"}]}, {"smiles": "O=C(NO)c1ccc(-c2ccccc2)s1", "note": "[Example 1 (g), 5-Phenyl-thiophene-2-carboxylic acid hydroxyamide]", "values": [{"measurement": "IC50", "setting": "[1]", "value": 44, "unit": "µM"}, {"measurement": "IC50", "setting": "[2]", "value": 31, "unit": "µM"}, {"measurement": "IC50", "setting": "[3]", "value": 0.9, "unit": "µM"}]}, {"smiles": "O=C(NO)c1ccc(-c2ccn(Cc3ccccc3)n2)s1", "note": "[Example 1 (l), 5-(1-Benzyl-1H-pyrazol-3-yl)-thiophene-2-carboxylic acid hydroxyamide]", "values": [{"measurement": "IC50", "setting": "[1]", "value": 4.5, "unit": "µM"}, {"measurement": "IC50", "setting": "[2]", "value": 2.1, "unit": "µM"}, {"measurement": "IC50", "setting": "[3]", "value": 0.153, "unit": "µM"}]}, {"smiles": "O=C(NO)c1ccc(-c2nccc(OCc3ccccc3)n2)s1", "note": "[Example 1 (z), 5-(4-Benzyloxy-pyrimidin-2-yl)-thiophene-2-carboxylic acid hydroxyamide]", "values": [{"measurement": "IC50", "setting": "[1]", "value": 7.3, "unit": "µM"}, {"measurement": "IC50", "setting": "[2]", "value": 2.3, "unit": "µM"}, {"measurement": "IC50", "setting": "[3]", "value": 0.076, "unit": "µM"}]}]}
